Experimental data reported in patent US11530196B2, “Pyrimidine compound acting on EGFR and ERBB2” (CHINA RESOURCES PHARMACEUTICAL HOLDINGS COMPANY LIMITED, priority 2019, dated 2022).

How the values were obtained:
[1] = test system: human lung cancer NCI-H1975 subcutaneous xenograft tumor; assay: NCI-H1975 subcutaneous xenograft tumor BALB/c nude mouse model; format: in vivo, BALB/c nude mice
Experimental: Human lung cancer NCI-H1975 cells were cultured in vitro in a monolayer under the conditions of 1640 medium with 10% fetal bovine serum, 1% double antibodies and incubated at 37° C. in a 5% CO2 incubator. Routine treatment passages were performed twice a week. When the cell saturation was 80%-90% and the number reached the required level, the cells were collected, counted, and inoculated.
BALB/c nude mice, female, 6-8 weeks old, weighing 18-22 g. Provided by Shanghai Xipuer-Bikai Laboratory Animal Co., Ltd. or other qualified suppliers.
Tumor tissue was collected from H1975 tumor-bearing mice of human lung cancer xenograft model, cut into 2-3 mm diameter tumor blocks and inoculated subcutaneously at the right anterior scapula of Balb/c nude mice. When the average tumor volume was 145 mm^3, the tumors were randomly grouped according to their size, and the day of grouping was defined as day 0.
The experimental index was to examine whether tumor growth was inhibited, delayed or cured. Tumor diameters were measured with vernier calipers twice a week. The calculation formula of tumor volume was: V=0.5a×b^2, wherein a and b represented the long and short diameters of the tumor, respectively. The antitumor efficacy of the compounds was evaluated by TGI (%) or relative tumor proliferation rate T/C (%). TGI (%), reflecting the tumor growth inhibition rate. Calculation of TGI (%): TGI (%)=[(1−(average tumor volume at the end of administration of a treatment group−average tumor volume at the beginning of administration of this treatment group))/(average tumor volume at the end of treatment in the solvent control group−average tumor volume at the beginning of treatment of the solvent control group)]×100%. Relative tumor proliferation rate T/C (%): The calculation formula was as follows: T/C %=TRTV/CRTV×100% (TRTV: RTV in the treatment group; CRTV: RTV in the negative control group). The relative tumor volume (RTV) was calculated according to the results of tumor measurement, and the formula was RTV=Vt/V0, wherein V0 was the average tumor volume measured at the time of group administration (i.e., d0), and Vt was the average tumor volume at a certain measurement, TRTV and CRTV were taken on the same day. After the experiment, the tumor weight will be detected, and the percentage of T/Cweight will be calculated. Tweight and Cweight represented the tumor weight of the administration group and the solvent control group, respectively.

[2] = Compound stability test in plasma (monkey); format: in vitro ADME, cynomolgus monkey
Experimental: In this study, mouse, SD rat, Beagle, cynomolgus monkey and human plasma were used as materials to investigate the stability of the tested compounds in the plasma of the above five species. Propantheline, Enalapril, Bisacodyl and Procaine were used as control compounds.
The experimental conditions for the test compounds were as follows: • test concentration: 2 μM (DMSO ≤0.5%); • incubation times: 0, 10, 30, 60 and 120 minutes; • frozen plasma (from multiple species) was used in the test system; • incubation conditions: 37° C.
The mixed frozen plasma was thawed in a 37° C. water bath prior to the experiment. Plasma was centrifuged at 4000 rpm for 5 minutes and cleared if there was a clot. The pH will be adjusted to 7.4±0.1 if required.
The intermediate solution of 1 mM compound and positive control was prepared by diluting 10 mM stock solution with 90 μL of dimethyl sulfoxide. 100 μM solution was prepared by diluting 20 μL of intermediate solution (1 mM) with 180 μL of 45% methanol/water.
2 μL of 100 μM solution was added to 98 μL of blank plasma to achieve a final concentration of 2 μM (in duplicate) of the sample, and the sample was incubated in a 37° C. water bath. At each time point (0, 10, 30, 60 and 120 min), 400 μL of termination solution (200 ng/mL toluenesulfonylurea and 200 ng/mL labetalol, 50% ACN/MeOH) was added to precipitate the proteins and mixed thoroughly. […]

[3] = molecular target: Ba/F3 EGFR-H773_V774insNPH (Homo sapiens, UniProt P00533, DUP771-773, cells depend on it); assay: Anti-proliferation against Ba/F3 exon 20 insertion mutant cells (NPH); format: cell-based, mouse; conditions: CTG, 72 hours, read-out: Mutant cells IC50 (anti-proliferation)
Description: RPMI1640 medium was purchased from Hyclone, FBS fetal bovine serum was purchased from GBICO, and trypsin-EDTA were both purchased from Giboco. DPBS was purchased from Corning, penicillin/streptomycin solution was purchased from Hyclone, and Cell-Titer Glo reagent was purchased from Promega (Cat. No. G7572). Ba/F3 EGFR-D770_N771insSVD, Ba/F3 EGFR-H773_V774insNPH, Ba/F3 EGFR-V769_D770insASV, BaF3 ERBB2 A775_G776 ins YVMA, the cell lines were constructed by Beijing Kang Yuan Bochuang Biotechnology Co., Ltd. Plate reading instrument: Envision (PerkinElmer).
Cells in logarithmic growth phase were harvested and cell counts were performed using a […]. Cell viability was detected by the Taipan Blue rejection assay. The cell concentration was adjusted; the cell suspension was added to a 96-well plate separately. Cells in 96-well plates were incubated overnight at 37° C., 5% CO2, and 95% humidity. […] The cell plate was placed at room temperature to stabilize the cold light signal, and the cold light values were read. The data were analyzed using GraphPad Prism 7.0 software, and a nonlinear S-curve regression was used to fit the data to derive the dose-effect curve from which the IC50 values were calculated. […]

Ba/F3 EGFR-H773_V774insNPH, sequence (P00533 with tags, fused parts or gaps DUP771-773): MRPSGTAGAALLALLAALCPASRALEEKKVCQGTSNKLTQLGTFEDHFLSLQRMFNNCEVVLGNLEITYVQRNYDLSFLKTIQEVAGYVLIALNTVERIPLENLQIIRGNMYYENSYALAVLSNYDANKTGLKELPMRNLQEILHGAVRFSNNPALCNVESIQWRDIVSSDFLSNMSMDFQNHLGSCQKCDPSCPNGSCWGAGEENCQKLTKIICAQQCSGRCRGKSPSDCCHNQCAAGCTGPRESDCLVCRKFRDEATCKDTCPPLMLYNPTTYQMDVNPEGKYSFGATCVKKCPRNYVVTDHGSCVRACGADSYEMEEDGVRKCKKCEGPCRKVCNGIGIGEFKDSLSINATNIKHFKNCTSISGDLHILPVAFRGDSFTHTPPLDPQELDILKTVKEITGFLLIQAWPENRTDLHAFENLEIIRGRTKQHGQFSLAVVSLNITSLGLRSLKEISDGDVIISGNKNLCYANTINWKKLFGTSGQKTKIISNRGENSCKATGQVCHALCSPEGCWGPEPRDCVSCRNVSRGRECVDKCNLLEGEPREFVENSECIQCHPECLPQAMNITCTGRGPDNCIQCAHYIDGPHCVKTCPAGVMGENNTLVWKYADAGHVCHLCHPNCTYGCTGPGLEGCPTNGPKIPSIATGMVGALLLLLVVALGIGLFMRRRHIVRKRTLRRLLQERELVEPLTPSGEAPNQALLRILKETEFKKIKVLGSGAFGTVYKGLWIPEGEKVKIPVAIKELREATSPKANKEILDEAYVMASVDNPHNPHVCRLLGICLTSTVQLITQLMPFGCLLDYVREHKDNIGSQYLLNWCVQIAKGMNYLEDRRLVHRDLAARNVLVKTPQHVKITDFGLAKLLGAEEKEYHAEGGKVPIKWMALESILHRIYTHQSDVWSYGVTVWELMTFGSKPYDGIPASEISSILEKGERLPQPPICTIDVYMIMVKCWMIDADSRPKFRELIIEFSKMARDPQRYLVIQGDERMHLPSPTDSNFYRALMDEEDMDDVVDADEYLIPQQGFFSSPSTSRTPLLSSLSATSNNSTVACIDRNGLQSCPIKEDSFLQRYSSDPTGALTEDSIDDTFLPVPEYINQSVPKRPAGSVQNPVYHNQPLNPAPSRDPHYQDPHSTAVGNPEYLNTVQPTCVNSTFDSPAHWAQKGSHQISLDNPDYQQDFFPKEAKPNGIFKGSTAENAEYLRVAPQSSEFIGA

In the case of `C=CC(=O)Nc1cc(Nc2ncc(C(=O)OC(C)C)c(-c3cn(OC)c4ccccc34)n2)c(OC)cc1N(C)CCN(C)C.CS(=O)(=O)O` [Compound 1], the “Tumor volume (Day 0)” value ([1]; Day 0 (grouping), mean ± standard error, n = 6) is reported as 153 ± 7 mm^3, the RTV ([1]; Day 20) is reported as 0.20 ± 0.10 and the T/C ([1]; Day 20) is reported as 1.35%. The TGI ([1]; Day 20) was 105.3%, the “Tumor volume (Day 20)” value ([1]; Day 20, mean ± standard error, n = 6) was 33 ± 16 mm^3 and the “In vitro plasma stability (Residual percentage)” value ([2]; 120 minutes, 2 μM, 37° C.) was 93.7%. For the same compound, the half-life at 2 µM ([2]; pH 7.4, 37° C., read-out: In vitro plasma half-life T1/2) was over 4.82 h and the GI50 [3] was 0.015 µM.
